From patent publication US7357914B2, “Use of metal chelates in human or animal feeding” (Agristudio S.R.L., priority 2002, dated 2008) come the findings set out here.

Values joined by “and” are separate entries in the source; they are usually repeats but may differ in a detail not shown here. Identical values can stand only once.

Data set [1] is described as follows: water solubility of the isolated iron (II) chelate. It is filed as physicochemical. To be noted: pale yellow powder. The source says: After filtration and washing the chelated product is then dried so as to reduce the amount of absorbed water.
Data set [2] is described as follows: feeding test in female Charolaise calves, zinc source in diet (zootechnical performance). The class given is in vivo. Here is the method: Living weight at test beginning and end, dead weight and slaughtering yield were determined for each animal.
The nature of data set [3]: feeding test in weaned pigs, zinc source in food (growth, zinc retention, tissue minerals). The class given is in vivo. The note with it: for Daily increase / Final living weight: about 27 days; for Final net weight: body weight without content of the digestive tube; for Diet: food intake, 50 ppm zinc from the source; for Daily net increase: net weight. On the procedure:
Two test groups of pigs (Control and Test) of 35 days of age and weaned at 19 days, were administered a food differing only in the zinc source. […] The two groups of animals were balanced by nest, living weight and sex and were fed for 27 days. Other 4 animals were immediately sacrificed and a sampling was made of them according to the following procedure. The two groups of animals were weighed before starting the test and after 27 days. At the end of the test the pigs were sacrificed and stomach, intestine, left kidney and liver were removed from every pig. Stomach and intestine were emptied and weighed again so as to obtain the net weight of said organs. A sample of kidney, liver and brain was taken and frozen. Stomach, intestine, left kidney and liver were then put together with the remaining carcass and homogenized with a mixer. A sample was then taken from the mass thus obtained and frozen. The samples were then dehydrated with a dehydrating device and underwent chemical analysis. The level of zinc, copper and iron were determined on the lyophilized samples by atomic absorption spectroscopy. The body levels of zinc were referred to the product. On the basis of the body's “net” weight (i.e. without the content of the digestive tube) and of its content of zinc at test beginning and end it was possible to determine also daily zinc retention.

The mark [4] stands for this setting: single calves 1-6 of each group, Table 5, listed as TEST.
[5] abbreviates: pigs, 50 ppm zinc from the source in food.
The mark [6] stands for this setting: pigs, lyophilized samples, atomic absorption.

On to `CSCCC(O)C(=O)[O-].CSCCC(O)C(=O)[O-].O.O.[Fe+2]` (centres unmarked) [(CH3SCH2CH2CH(OH)COO)2Fe.2H2O], for which the water solubility entry in data set [1] was “little water soluble”.
`CSCCC(O)C(=O)[O-].CSCCC(O)C(=O)[O-].O.O.[Zn+2]` (centres unmarked) [zinc chelate, (CH3SCH2CH2CH(OH)COO)2Zn.2H2O]: the Final weight in data set [2] (calves, 90 days, 700 mg zinc daily, group value, Table 4, in kg) is 652. This molecule also showed a carcass weight in data set [2] (calves, 90 days, P<0.01) of 377 kg. In data set [2] (calves, 90 days, group value, Table 4), the Daily increase is listed as 1,039. Further, in data set [2] (calves, 90 days, group value, Table 4, in kg), the carcass weight is 377. Further, in data set [2] (calves, 90 days, p<0.05), the Final weight worked out at 652 kg and the daily weight increase is reported as 1,039 g. This molecule yielded a yield in data set [2] (calves, slaughtering yield, p<0.01) of 57.83%. Also, in data set [2] (setting [4]), the Dead weight is 421 kg and 457 kg and 398 kg and 378 kg and 320 kg and 318 kg; the Final weight was 724.61 kg and 789.29 kg and 686.21 kg and 653.98 kg and 557.49 kg and 548.28 kg; the Total increase is 99.0 kg and 112.5 kg and 103.5 kg and 90.00 kg and 81.00 kg and 80.10 kg. Further, in data set [3] (pig, in vivo), the “Brain Copper content” value was 28.1, the “Brain Iron content” value stood at 100.9, the “Brain Zinc content” value came to 53.9 and the “Daily Zn retention” value is given as 5.40 mg. For the same molecule, in data set [3] (pig, in vivo), the “Kidney Copper content” value is 55.0, the “Kidney Iron content” value came out at 244, the “Kidney Zinc content” value amounted to 97.5 and the “Liver Copper content” value amounted to 63.6 mg/kg. Further, in data set [3] (pig, in vivo), the “Liver Iron content” value is on record as 240 and the “Liver Zinc content” value was found to be 292 mg/kg. In data set [3] (setting [5]), the Conversion index was 1.68, the Daily increase is 327 g and the Final living weight came out at 16.14 kg. In data set [3] (pigs), this molecule came in with a Final net weight of 15.57 kg, a Diet of 544 g and a Daily net increase of 314 g.
Turning to `O=S(=O)([O-])[O-].[Zn+2]` [zinc sulfate, reference compound], in data set [3] (setting [5]), the Daily increase was 321 g and the Final living weight was 16.20 kg. In data set [3] (pigs), this molecule gave a Final net weight of 15.76 kg, a Diet of 548 g and a Daily net increase of 313 g. For the same molecule, the “Daily Zn retention” value in data set [3] (pigs, from net body weight and body zinc content at test beginning and end) is 5.27 mg. Also, in data set [3] (setting [6]), the “Brain Copper content” value came out at 23.3, the “Brain Iron content” value amounted to 80.6, the “Brain Zinc content” value amounted to 47.6 and the “Kidney Copper content” value was 40.2. For the same molecule, in data set [3] (setting [6]), the “Kidney Iron content” value was 179, the “Kidney Zinc content” value is 82.3, the “Liver Copper content” value is reported as 62.5 mg/kg and the “Liver Zinc content” value amounted to 300 mg/kg.
